Data published in PMC7059089, “Bioguided Isolation and Structure Identification of Acetylcholinesterase Enzyme Inhibitors from Drynariae Rhizome” (Journal of Analytical Methods in Chemistry, 2020).

Target: T1, AChE (acetylcholinesterase) (Electrophorus electricus, UniProt O42275)
T1 construct: obtained from the head of an electric eel; purchased Shanghai Source Biotech Co. Ltd. (Shanghai, China); host or cells: electric eel tissue (head)
Assay: biochemical
Conditions: UPLC-MS/MS assay, ACh-I substrate, 37°C, 25 min, pH 8.0, n = 6, ± SD; read-out: IC50 against AChE
Text: AChE (acetylcholinesterase, obtained from the head of an electric eel, 500 U), iodized acetylcholine (ACh-I, purity > 98.0%), iodized choline (Ch-I, purity > 98.0%), and Tris-HCl buffer (1 mol/L, pH 8.0) were all purchased from Shanghai Source Biotech Co. Ltd. (Shanghai, China). […] UPLC-grade acetonitrile was obtained from Fisher (Fair Lawn, NJ, USA). Water was purified by redistillation and a Milli-Q® ultrapure water system (Millipore, Bedford, MA, USA). Other chemicals and solvents used were of analytical grade.
AChE inhibition activities of the analytes were determined in vitro by monitoring the transformation from a substrate (ACh-I) to the product (Ch-I) catalyzed AChE, and Ch-I was quantified with UPLC-MS/MS to access the AChE activity. The reaction was conducted in a 100 μL mixture, consisting of 50 μL AChE solution (0.5 U/mL), 45 μL ACh-I solution (400 μg/mL), and 5 μL tested sample or blank Tris solution which were all dissolved in Tris buffer (pH 8.0). The mixture was incubated at 37°C in a thermostatic water bath for 25 min and then terminated by 500 μL acetonitrile at 0°C immediately. The terminal solution was centrifuged at 20,000g for 15 min, and the supernatant was used for UPLC-MS/MS analysis.
The […] inhibition was calculated as follows:(1) inhibition %=Cb−Cs/Cb∗100%. where Cb means the Ch-I concentration incubated without AChE inhibitor and Cs means the Ch-I concentration incubated with inhibitor. The inhibitory activities of the AChE inhibitors were assessed by the IC50 values of tested compounds. Galanthamine was selected as a positive control.
Liquid chromatography analysis was accomplished on an ACQUITY UPLC™ system (Waters Corp., Milford, MA, USA). The chromatographic separation was carried out using an ACQUITY UPLCTM BEH C18 column (2.1 × 50 mm, 1.7 μm) at 30°C. The isocratic elution mobile phase consisted of 0.5% acetic acid (A) and acetonitrile (B) (40 : 60) to guarantee the peak shape of Ch-I.
A Waters® Micromass® Quattro Premier™ XE triple-quadrupole tandem mass spectrometer equipped with an electrospray ionization interface (TQ-ESI) was used for mass spectrometric detection. The positive ESI source operation optimal parameters were capillary voltage 3.0 kV, extractor voltage 3.00 V, skimmer 25.0 V, fragmentor 35 V, octopole Rf peak 3000 v, source temperature 120°C, and desolvation temperature 300°C. Nitrogen was used as the desolvation gas and cone gas at a flow of 600 L/h and 50 L/h, respectively. Argon was used as the collision gas at a pressure of approximately 2.61 × 10^−3 mbar. A multiple reaction monitoring (MRM) mode was used to quantify Ch-I, and the fragments of 104.34 Th and 58.53 Th were selected as the parent ion and daughter ion to obtain accurate quantitation in the mixture containing herb extract. The MS scan rate spectrum was 5000 amu/s, dwell time 5 ms, and m/z range 0–300 Th. All data were acquired and analyzed by Mass Lynx™ NT 4.1 software with the Quan Lynx™ program (Waters, Milford, MA, USA).
The reaction procedure was conducted with reference to Liu's report; moreover, the enzyme constants, steady-state kinetics, reaction temperature, reaction time, substrate concentration, and AChE concentration were investigated and optimized to guarantee the utilization. […] The concentration of AChE in Liu's report was 3.470 U/mL.

T1 sequence (O42275 24-633): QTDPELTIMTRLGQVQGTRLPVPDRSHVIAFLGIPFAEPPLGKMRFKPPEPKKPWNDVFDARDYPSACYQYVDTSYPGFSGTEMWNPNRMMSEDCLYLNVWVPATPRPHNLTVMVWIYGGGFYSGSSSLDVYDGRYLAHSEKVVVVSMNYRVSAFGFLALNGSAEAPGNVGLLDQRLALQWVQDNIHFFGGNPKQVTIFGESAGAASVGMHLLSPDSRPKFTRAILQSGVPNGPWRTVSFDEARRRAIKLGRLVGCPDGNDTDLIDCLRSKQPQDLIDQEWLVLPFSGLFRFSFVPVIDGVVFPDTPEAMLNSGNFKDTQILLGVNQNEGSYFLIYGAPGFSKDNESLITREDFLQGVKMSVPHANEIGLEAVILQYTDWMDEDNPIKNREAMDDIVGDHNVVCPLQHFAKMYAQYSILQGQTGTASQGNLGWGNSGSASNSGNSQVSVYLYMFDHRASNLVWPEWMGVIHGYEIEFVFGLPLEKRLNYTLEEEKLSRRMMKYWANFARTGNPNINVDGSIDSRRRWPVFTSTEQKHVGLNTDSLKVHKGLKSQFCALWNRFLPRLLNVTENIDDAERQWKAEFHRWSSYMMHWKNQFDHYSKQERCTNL

| Structure (SMILES) | IC50 [µM] |
| --- | --- |
| O=c1c(O[C@@H]2O[C@H](CO)[C@@H](O)[C@H](O)[C@H]2O)c(-c2ccc(O)cc2)oc2cc(O)cc(O)c12 [Astragalin, astragalin] | 18.2 ± 2.33 |
| O=C1C[C@@H](c2ccc(O)c(O)c2)Oc2cc(O)cc(O)c21 [Eriodictyol, eriodictyol] | 7.19 ± 0.62 |
| O=c1cc(-c2ccc(O)c(O)c2)oc2cc(O)cc(O)c12 [Luteolin, luteolin] | 17.3 ± 0.23 |
| O=c1cc(-c2ccc(O)c(O)c2)oc2cc(O[C@@H]3O[C@H](CO)[C@H](O)[C@H](O)[C@H]3O)cc(O)c12 [Luteolin-7-O-β-D-glucoside, luteolin-7-O-β-D-glucoside] | 17.1 ± 1.02 |
| O=C1C[C@@H](c2ccc(O)cc2)Oc2cc(O)cc(O)c21 [Naringenin, naringenin] | 3.81 ± 0.21 |
| C[C@@H]1O[C@@H](O[C@H]2[C@H](Oc3cc(O)c4c(c3)O[C@H](c3ccc(O)cc3)CC4=O)O[C@H](CO)[C@@H](O)[C@@H]2O)[C@H](O)[C@H](O)[C@H]1O [Naringin, naringin] | 26.4 ± 1.17 |
| C[C@@H]1O[C@@H](O[C@H]2[C@H](Oc3cc(O)c4c(c3)O[C@H](c3ccc(O)c(O)c3)CC4=O)O[C@H](CO)[C@@H](O)[C@@H]2O)[C@H](O)[C@H](O)[C@H]1O [Neoeriocitrin, neoeriocitrin] | 22.5 ± 1.25 |
